This passage reports IC50 and half-life results from ChEMBL document CHEMBL4417631, “Oral peptide inhibitors of interleukin-23 receptor and their use to treat inflammatory bowel diseases” (2017).

Data set [1] has as its target T1, Interleukin-23 receptor (Homo sapiens, UniProt Q5VWK5).
T1 sequence (Q5VWK5 whole entry): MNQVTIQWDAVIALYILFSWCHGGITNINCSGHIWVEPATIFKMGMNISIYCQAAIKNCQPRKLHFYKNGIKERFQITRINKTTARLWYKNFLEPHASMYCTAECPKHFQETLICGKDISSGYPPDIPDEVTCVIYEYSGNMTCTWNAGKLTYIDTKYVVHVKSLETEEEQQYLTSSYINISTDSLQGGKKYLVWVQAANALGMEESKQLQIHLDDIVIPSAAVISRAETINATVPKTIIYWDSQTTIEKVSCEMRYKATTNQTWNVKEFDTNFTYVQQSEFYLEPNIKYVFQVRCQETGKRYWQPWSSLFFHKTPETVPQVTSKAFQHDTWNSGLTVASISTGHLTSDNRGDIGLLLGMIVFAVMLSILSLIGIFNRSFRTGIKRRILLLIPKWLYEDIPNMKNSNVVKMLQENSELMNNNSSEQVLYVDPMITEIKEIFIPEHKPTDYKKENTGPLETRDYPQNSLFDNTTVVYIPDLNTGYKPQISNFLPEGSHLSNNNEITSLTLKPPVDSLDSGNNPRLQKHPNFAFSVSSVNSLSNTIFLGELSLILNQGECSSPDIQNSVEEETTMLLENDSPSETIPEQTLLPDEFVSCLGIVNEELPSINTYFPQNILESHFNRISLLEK
The experiment in a line: Inhibition of interleukin-23 receptor in human natural killer cells assessed as reduction in IL23/IL18-induced IFNgamma production incubated for 20 to 24 hrs by ELISA. The data set is classed as cell-based. A general note: ELISA stands for enzyme-linked immunosorbent assay.

Data set [2] can be described thus: Half life in simulated gastric fluid at 20 uM by LC-MS/MS analysis. The data set is classed as ADME.
The nature of data set [3]: Half life in simulated intestinal fluid at 20 uM by LC-MS/MS analysis. The data set is classed as ADME.
Data set [4] can be described thus: Inhibition of interleukin-23 binding to rat interleukin-23 receptor incubated for 2 hrs by competitive binding ELISA.
Data set [5] concerns the target T1, Interleukin-23 receptor. The experiment in a line: Inhibition of interleukin-23 receptor in human DB cells assessed as reduction in IL-23-stimulated STAT3 phosphorylation incubated for 30 mins by HTRF assay. The data set is classed as cell-based. Background: In TR-FRET formats the signal depends on donor and acceptor labels being close together.
Data set [6] addresses T1, Interleukin-23 receptor. The experiment in a line: Inhibition of interleukin-23 binding to human interleukin-23 receptor incubated for 2 hrs by competitive binding ELISA.

*1 amine or outer side, *2 acyl side, *3 side chain or, on linkers, in order; H or OH if unused. Where a SMILES comes first, the peptide text is derived from it. Bridges are numbered along the chain shown (N, C = ends). [ ]: non-standard residue; d: D form. Abu(4-yl) = O=C([C@H](CC[*:3])N[*:1])[*:2]; 2Nal = N[C@@H](Cc1ccc2ccccc2c1)C(=O)O; AEF = NCCOc1ccc(C[C@H](N)C(=O)O)cc1; αMeK = C[C@](N)(CCCCN)C(=O)O; Aib = CC(C)(N)C(=O)O

Broadly, the IC50 is the concentration at which inhibition is half-maximal. One may read the half-life as the time needed for the level to fall by half in the phase considered. A high value points to slow decline.

Turning to `CC(=O)NCCCC[C@H](NC(=O)C(C)(C)NC(=O)[C@H](Cc1ccc2ccccc2c1)NC(=O)[C@H](Cc1ccc(C(N)=O)cc1)NC(=O)[C@@H](NC(=O)[C@H](CCC(N)=O)NC(=O)[C@H](Cc1c[nH]c2ccccc12)NC(=O)[C@@H](NC(=O)[C@H](CC(N)=O)NC(=O)[C@@H](NC(C)=O)C(C)(C)S)[C@@H](C)O)C(C)(C)S)C(=O)N[C@@H](CC(N)=O)C(=O)N[C@@H](CC(N)=O)C(N)=O`, the IC50 on Interleukin-23 receptor [1] is under 10 nM. Moreover, the half-life at 20 µM is 3 to 6 h in data set [2] and 1 to 2 h in data set [3].
With `CC(=O)N[C@H]1CCSC[C@@H](C(=O)N[C@@H](Cc2ccc(OCCN)cc2)C(=O)N[C@@H](Cc2ccc3ccccc3c2)C(=O)NC(C)(C)C(=O)N[C@@H](CCC(N)=O)C(=O)N[C@@H](CC(N)=O)C(=O)NCC(N)=O)NC(=O)[C@H](CCC(N)=O)NC(=O)[C@H](Cc2c[nH]c3ccccc23)NC(=O)[C@H]([C@@H](C)O)NC(=O)[C@H](CCC(N)=O)NC1=O` (Ac-[Abu(4-yl)]QTWQC[AEF][2Nal][Aib]QNG-NH2; thioether 1-6), the IC50 on Interleukin-23 receptor [1] was under 25 nM; in data set [4], 10 to 25 nM; at Interleukin-23 receptor [5], under 10 nM; at Interleukin-23 receptor [6], under 10 nM. Besides, the half-life at 20 µM in data set [2] is 3 to 6 h; in data set [3], 2 to 3 h.
Consider `CC(=O)N[C@H]1CCSC[C@@H](C(=O)N[C@@H](Cc2ccc(OCCN)cc2)C(=O)N[C@@H](Cc2ccc3ccccc3c2)C(=O)N[C@@](C)(CCCCN)C(=O)N[C@@H](CCC(=O)O)C(=O)N[C@@H](CC(N)=O)C(=O)N[C@@H](CCC(N)=O)C(N)=O)NC(=O)[C@H](CCC(N)=O)NC(=O)[C@H](Cc2c[nH]c3ccccc23)NC(=O)[C@H]([C@@H](C)O)NC(=O)[C@H](CCC(N)=O)NC1=O` (Ac-[Abu(4-yl)]QTWQC[AEF][2Nal][αMeK]ENQ-NH2; thioether 1-6), for which the half-maximal inhibitory concentration (IC50) at Interleukin-23 receptor [1] is under 25 nM; in data set [4] it was under 10 nM; on Interleukin-23 receptor [5] it was under 10 nM; at Interleukin-23 receptor [6], under 10 nM. For the same compound, the half-life at 20 µM in data set [2] and in data set [3] was 3 to 6 h each time.
As to `CC(=O)NCCCC[C@H](NC(=O)C(C)(C)NC(=O)[C@H](Cc1ccc2ccccc2c1)NC(=O)[C@H](Cc1ccc(OCCN)cc1)NC(=O)[C@@H](NC(=O)[C@H](CCC(N)=O)NC(=O)[C@H](Cc1c[nH]c2ccccc12)NC(=O)[C@@H](NC(=O)[C@H](CC(N)=O)NC(=O)[C@@H](NC(C)=O)C(C)(C)S)[C@@H](C)O)C(C)(C)S)C(=O)N[C@@H](CC(N)=O)C(=O)N[C@@H](CC(N)=O)C(N)=O`, the IC50 (at Interleukin-23 receptor [1]; in data set [4]; on Interleukin-23 receptor [5]; at Interleukin-23 receptor [6]) was under 10 nM in each case. Also, the half-life at 20 µM in data set [2] and in data set [3] was over 6 h throughout.
For `CC(=O)NCCCC[C@H](NC(=O)[C@@](C)(NC(=O)[C@H](Cc1ccc2ccccc2c1)NC(=O)[C@H](Cc1ccc(OCCN)cc1)NC(=O)[C@@H]1CSCC[C@H](NC(C)=O)C(=O)N[C@@H](CCC(N)=O)C(=O)N[C@@H]([C@@H](C)O)C(=O)N[C@@H](Cc2c[nH]c3ccccc23)C(=O)N[C@@H](CCC(N)=O)C(=O)N1)C(C)C)C(=O)N[C@@H](CC(N)=O)C(=O)NCC(N)=O`, the IC50 at Interleukin-23 receptor [1] is under 25 nM; in data set [4], under 10 nM; on Interleukin-23 receptor [5], under 10 nM; on Interleukin-23 receptor [6] it was under 10 nM. Also, the half-life at 20 µM in data set [2] was 1 to 2 h; in data set [3], 2 to 3 h.
In the case of `CC(=O)NCCCC[C@H](NC(=O)C(C)(C)NC(=O)[C@H](Cc1ccc2ccccc2c1)NC(=O)[C@H](Cc1ccc(OCCN)cc1)NC(=O)[C@@H](NC(=O)[C@H](CCC(N)=O)NC(=O)[C@H](Cc1c[nH]c2ccccc12)NC(=O)[C@@H](NC(=O)[C@H](CC(N)=O)NC(=O)[C@@H](NC(C)=O)C(C)(C)S)[C@@H](C)O)C(C)(C)S)C(=O)N[C@@H](CC(N)=O)C(=O)NCCC(N)=O`, the IC50 is under 10 nM on Interleukin-23 receptor [1], 10 to 25 nM in data set [4] and under 10 nM at Interleukin-23 receptor [5]. For the same compound, the half-life at 20 µM in data set [2] and in data set [3] was over 6 h in each case.
Turning to `COc1ccc(C[C@H](NC(=O)[C@H](Cc2ccc(OCCN)cc2)NC(=O)[C@@H]2CSCC[C@H](NC(C)=O)C(=O)N[C@@H](CCC(N)=O)C(=O)N[C@@H]([C@@H](C)O)C(=O)N[C@@H](Cc3c[nH]c4ccccc34)C(=O)N[C@@H](CCC(N)=O)C(=O)N2)C(=O)N[C@@](C)(CCCCN)C(=O)N[C@@H](CCCCNC(C)=O)C(=O)N[C@@H](CC(N)=O)C(=O)NCC(N)=O)cc1OC`, the IC50 was under 25 nM at Interleukin-23 receptor [1], 25 to 100 nM in data set [4], under 10 nM at Interleukin-23 receptor [5] and 10 to 25 nM at Interleukin-23 receptor [6].
As for `CC(=O)N[C@H]1CCSC[C@@H](C(=O)N[C@@H](Cc2ccc(OCCN)cc2)C(=O)N[C@@H](Cc2ccc3ccccc3c2)C(=O)NC2(C(=O)N[C@@H](CCC(=O)O)C(=O)N[C@@H](CC(N)=O)C(=O)N[C@@H](CC(N)=O)C(N)=O)CCC2)NC(=O)[C@H](CCC(N)=O)NC(=O)[C@H](Cc2c[nH]c3ccccc23)NC(=O)[C@H]([C@@H](C)O)NC(=O)[C@H](CCC(N)=O)NC1=O`, the IC50 on Interleukin-23 receptor [1] is under 25 nM; in data set [4], under 10 nM; at Interleukin-23 receptor [5], under 10 nM. The half-life at 20 µM in data set [2] is 1 to 2 h; in data set [3], under 1 h.
On to `CC(=O)NCCCC[C@H](NC(=O)[C@](C)(CCCCNC(C)=O)NC(=O)[C@H](Cc1ccc2ccccc2c1)NC(=O)[C@H](Cc1ccc(OCCNC(C)=O)cc1)NC(=O)[C@@H]1CSCC[C@H](NC(C)=O)C(=O)N[C@@H](CCC(N)=O)C(=O)N[C@@H]([C@@H](C)O)C(=O)N[C@@H](Cc2c[nH]c3ccccc23)C(=O)N[C@@H](CCC(N)=O)C(=O)N1)C(=O)N[C@@H](CC(N)=O)C(=O)NCC(N)=O`, for which the 50% inhibitory concentration (IC50) at Interleukin-23 receptor [1] is under 25 nM; in data set [4], under 10 nM; at Interleukin-23 receptor [5] it was under 10 nM; at Interleukin-23 receptor [6], under 10 nM. Besides, the half-life at 20 µM in data set [2] was under 1 h; in data set [3], 3 to 6 h.
With `CC(=O)NCCCC[C@H](NC(=O)[C@@](C)(NC(=O)[C@H](Cc1ccc2ccccc2c1)NC(=O)[C@H](Cc1ccc(C(N)=O)cc1)NC(=O)[C@@H](NC(=O)[C@H](CCC(N)=O)NC(=O)[C@H](Cc1c[nH]c2ccccc12)NC(=O)[C@@H](NC(=O)[C@H](CCC(N)=O)NC(=O)[C@@H](NC(C)=O)C(C)(C)S)[C@@H](C)O)C(C)(C)S)C(C)C)C(=O)N[C@@H](CC(N)=O)C(=O)N[C@@H](CC(N)=O)C(N)=O`, the results for the half-inhibitory concentration (IC50) (at Interleukin-23 receptor [1]; in data set [4]; at Interleukin-23 receptor [5]) were 10 to 25 nM, 10 to 25 nM and under 10 nM, respectively. Besides, the half-life at 20 µM in data set [2] was 3 to 6 h; in data set [3], over 6 h.
Turning to `COc1ccc(C[C@H](NC(=O)[C@@H]2CSCC[C@H](NC(C)=O)C(=O)N[C@@H](CCC(N)=O)C(=O)N[C@@H]([C@@H](C)O)C(=O)N[C@@H](Cc3c[nH]c4ccccc34)C(=O)N[C@@H](CCC(N)=O)C(=O)N2)C(=O)N[C@@H](Cc2ccc3ccccc3c2)C(=O)N[C@@](C)(CCCCNC(=O)COCC(=O)NCCCC[C@](C)(NC(=O)[C@H](Cc2ccc3ccccc3c2)NC(=O)[C@H](Cc2ccc(OC)cc2)NC(=O)[C@@H]2CSCC[C@H](NC(C)=O)C(=O)N[C@@H](CCC(N)=O)C(=O)N[C@@H]([C@@H](C)O)C(=O)N[C@@H](Cc3c[nH]c4ccccc34)C(=O)N[C@@H](CCC(N)=O)C(=O)N2)C(=O)N[C@@H](CCC(=O)O)C(=O)N[C@@H](CC(N)=O)C(=O)NCC(N)=O)C(=O)N[C@@H](CCC(=O)O)C(=O)N[C@@H](CC(N)=O)C(=O)NCC(N)=O)cc1`, the IC50 at Interleukin-23 receptor [1] was under 25 nM; in data set [4], 10 to 25 nM; at Interleukin-23 receptor [5], under 10 nM; on Interleukin-23 receptor [6] it was under 10 nM.
On to `CC(=O)N[C@H]1CCSC[C@@H](C(=O)N[C@@H](Cc2ccc(OCCN)cc2)C(=O)N[C@@H](Cc2ccc3ccccc3c2)C(=O)N[C@@](C)(CCCCN)C(=O)N[C@@H](CCCCNC(=O)CC(C)C)C(=O)N[C@@H](CC(N)=O)C(=O)NCC(N)=O)NC(=O)[C@H](CCC(N)=O)NC(=O)[C@H](Cc2c[nH]c3ccccc23)NC(=O)[C@H]([C@@H](C)O)NC(=O)[C@H](CCC(N)=O)NC1=O`, for which the IC50 at Interleukin-23 receptor [1] is under 25 nM; in data set [4], 10 to 25 nM; on Interleukin-23 receptor [5] it was under 10 nM; at Interleukin-23 receptor [6], under 10 nM. Besides, the half-life at 20 µM in data set [2] and in data set [3] was over 6 h each time.
Consider `CC(=O)N[C@H]1CCSC[C@@H](C(=O)N[C@@H](Cc2ccc(O)cc2)C(=O)N[C@@H](Cc2ccc3ccccc3c2)C(=O)N[C@@](C)(CC(C)C)C(=O)N[C@@H](CCC(=O)O)C(=O)N[C@@H](CC(N)=O)C(=O)NCC(N)=O)NC(=O)[C@H](CCC(N)=O)NC(=O)[C@H](Cc2c[nH]c3ccccc23)NC(=O)[C@H]([C@@H](C)O)NC(=O)[C@H](CCC(N)=O)NC1=O`, for which the concentration for half-maximal inhibition (IC50) at Interleukin-23 receptor [1] is under 25 nM; in data set [4] it was 10 to 25 nM; on Interleukin-23 receptor [5], under 10 nM; on Interleukin-23 receptor [6], 10 to 25 nM. Besides, in data set [3], the half-life at 20 µM was under 1 h.
